Source: patent US7138361B2, “Herbicidal heterocycles” (E. I. du Pont de Nemours and Company, priority 2000, dated 2006)

Tests used:
Format in all cases: in vivo
Sunflower [1] = assay: Test C preemergence; conditions: Rate 500 g/ha, visual evaluation after 12 to 14 days
[2] = tested on: crabgrass (Digitaria sanguinalis); assay: Test B postemergence
How it was run: (§1)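 Visual injury scores, 0 = no effect to 100 = complete control, assigned against controls after 13 to 15 days in the greenhouse. Compounds formulated in non-phytotoxic solvent plus surfactant and applied to soil after planting (pre) or onto foliage of 1- to 4-leaf plants (post).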

[3] = tested on: wheat (Triticum aestivum); assay: Test B postemergence
How it was run: as §1

[4] = tested on: blackgrass (Alopecurus myosuroides); assay: Test B postemergence
How it was run: as §1

corn (Zea mays) = assay: Test B postemergence
How it was run: as §1

[5] = tested on: velvetleaf (Abutilon theophrasti); assay: Test B postemergence
How it was run: as §1

[6] = tested on: lambsquarters (Chenopodium album); assay: Test B postemergence
How it was run: as §1

[7] = tested on: cocklebur (Xanthium strumarium); assay: Test B postemergence
How it was run: as §1

[8] = tested on: barnyardgrass (Echinochloa crus-galli); assay: Test B postemergence
How it was run: as §1

[9] = tested on: Surinam grass (Brachiaria decumbens); assay: Test B postemergence
How it was run: as §1

[10] = tested on: pigweed (Amaranthus retroflexus); assay: Test B postemergence
How it was run: as §1

[11] = tested on: giant foxtail (Setaria faberii); assay: Test B postemergence
How it was run: as §1

wild oat (Avena fatua) = assay: Test B postemergence
How it was run: as §1

[12] = tested on: morning glory (Ipomoea hederacea); assay: Test B postemergence
How it was run: as §1

Sunflower [13] = assay: Test C preemergence; conditions: Rate 250 g/ha, scale 0 to 100, 0 no effect, 100 complete control
[14] = tested on: crabgrass (Digitaria sanguinalis); assay: Test C preemergence; conditions: for Plant response rating (0 to 100), Crabgrass: Rate 500 g/ha, visual evaluation after 12 to 14 days
How it was run: (§2)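 Pre- and postemergence treatments used a non-phytotoxic solvent/surfactant formulation; post-treated plants measured 2 to 18 cm. Greenhouse hold 12–14 d; % control estimated visually relative to controls.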

soybean (Glycine max) = assay: Test C preemergence; conditions: for Plant response rating (0 to 100), Soybean: Rate 500 g/ha, visual evaluation after 12 to 14 days
How it was run: as §2

Sunflower [15] = assay: Test C preemergence; conditions: Rate 125 g/ha; scale 0 to 100, 0 no effect, 100 complete control
[16] = tested on: bermudagrass (Cynodon dactylon); assay: Test C preemergence; conditions: for Plant response rating (0 to 100 where 0 is no effect and 100 is complete control), Bermudagrass: Rate 500 g/ha, visual evaluation after 12 to 14 days
How it was run: as §2

[17] = tested on: velvetleaf (Abutilon theophrasti); assay: Test C preemergence; conditions: for Plant response rating (0 to 100), Velvetleaf: Rate 500 g/ha, visual evaluation after 12 to 14 days
How it was run: as §2

[18] = tested on: goosegrass (Eleusine indica); assay: Test C preemergence; conditions: for Plant response rating (0 to 100), Goosegrass: Rate 500 g/ha, visual evaluation after 12 to 14 days
How it was run: as §2

[19] = tested on: cocklebur (Xanthium strumarium); assay: Test C preemergence; conditions: for Plant response rating (0 to 100), Cocklebur: Rate 500 g/ha, visual evaluation after 12 to 14 days
How it was run: as §2

kochia (Kochia scoparia) = assay: Test C preemergence; conditions: for Plant response rating (0 to 100), Kochia: Rate 500 g/ha, visual evaluation after 12 to 14 days
How it was run: as §2

[20] = Rate 125 g/ha, scale 0 to 100, 0 no effect, 100 complete control
[21] = Rate 500 g/ha, scale 0 (no effect) to 100 (complete control), 13 to 15 days
[22] = preemergence, Rate 62 g/ha, scale 0 to 100
[23] = preemergence, Rate 250 g/ha, scale 0 to 100, 0 no effect, 100 complete control
[24] = Rate 500 g/ha, scale 0 to 100, 0 is no effect, 100 is complete control, 13 to 15 days

CCC(CC)c1ccn(C2CCN(c3ccc(F)c(C(F)(F)F)c3)C2=O)n1 (stereo not shown) [Compound 144]
Plant response rating (0 to 100), Sunflower (Sunflower [1]): 70 | Plant response rating, Crabgrass [2, 20]: 0 | Plant response rating, Crabgrass [2, 21]: 40 | Plant response rating, Wheat [3, 20]: 0 | Plant response rating, Wheat [3, 21]: 0 | Plant response rating, Blackgrass [4, 20]: 0 | Plant response rating, Blackgrass [4, 21]: 0 | Plant response rating, Corn (corn (Zea mays); [20]): 0 | Plant response rating, Corn (corn (Zea mays); [21]): 0 | Plant response rating, Velvetleaf [5, 20]: 0 | Plant response rating, Velvetleaf [5, 21]: 0 | Plant response rating, Lambsquarters [6, 20]: 100 | Plant response rating, Lambsquarters [6, 21]: 100 | Plant response rating, Cocklebur [7, 20]: 0 | Plant response rating, Cocklebur [7, 21]: 30 | Plant response rating, Barnyardgrass [8, 20]: 0 | Plant response rating, Barnyardgrass [8, 21]: 0 | Plant response rating, Surinam grass [9, 20]: 0 | Plant response rating, Surinam grass [9, 21]: 0 | Plant response rating, Pigweed [10, 20]: 50 | Plant response rating, Pigweed [10, 21]: 100 | Plant response rating, Foxtail, Giant [11, 20]: 20 | Plant response rating, Foxtail, Giant [11, 21]: 40 | Plant response rating, Wild Oat (wild oat (Avena fatua); [20]): 0 | Plant response rating, Wild Oat (wild oat (Avena fatua); [21]): 0 | Plant response rating, Morningglory [12, 20]: 0 | Plant response rating, Morningglory [12, 21]: 30 | Plant response rating, Sunflower (Sunflower [13]): 40 | Plant response rating, Crabgrass [14, 20]: 100 | Plant response rating, Crabgrass [14, 22]: 100 | Plant response rating (0 to 100), Crabgrass ([14]; preemergence): 100 | Plant response rating, Crabgrass [14, 23]: 100 | Plant response rating, Soybean (soybean (Glycine max); [20]): 50 | Plant response rating, Soybean (soybean (Glycine max); [22]): 50 | Plant response rating (0 to 100), Soybean (soybean (Glycine max); preemergence): 70 | Plant response rating, Soybean (soybean (Glycine max); [23]): 70 | Plant response rating, Sunflower (Sunflower [15]): 40 | Plant response rating, Bermudagrass [16, 20]: 100 | Plant response rating, Bermudagrass [16, 22]: 100 | Plant response rating (0 to 100 where 0 is no effect and 100 is complete control), Bermudagrass ([16]; preemergence): 100 | Plant response rating, Bermudagrass [16, 23]: 100 | Plant response rating, Velvetleaf [17, 20]: 0 | Plant response rating, Velvetleaf [17, 22]: 0 | Plant response rating (0 to 100), Velvetleaf ([17]; preemergence): 20 | Plant response rating, Velvetleaf [17, 23]: 20 | Plant response rating, Goosegrass [18, 20]: 100 | Plant response rating, Goosegrass [18, 22]: 100 | Plant response rating (0 to 100), Goosegrass ([18]; preemergence): 100 | Plant response rating, Goosegrass [18, 23]: 100 | Plant response rating, Cocklebur [19, 20]: 60 | Plant response rating, Cocklebur [19, 22]: 50 | Plant response rating (0 to 100), Cocklebur ([19]; preemergence): 60 | Plant response rating, Cocklebur [19, 23]: 60 | Plant response rating, Kochia (kochia (Kochia scoparia); [20]): 100 | Plant response rating, Kochia (kochia (Kochia scoparia); [22]): 90 | Plant response rating (0 to 100), Kochia (kochia (Kochia scoparia); preemergence): 100 | Plant response rating, Kochia (kochia (Kochia scoparia); [23]): 100

CC(C)(C)c1ccn(C2OCN(c3cccc(OC(F)F)c3)C2=O)n1 (stereo not shown) [Compound 133]
Plant response rating (0 to 100), Sunflower (Sunflower [1]): 0 | Plant response rating, Crabgrass [2, 20]: 40 | Plant response rating, Wheat [3, 20]: 0 | Plant response rating, Blackgrass [4, 20]: 0 | Plant response rating, Blackgrass [4, 24]: 0 | Plant response rating, Corn (corn (Zea mays); [20]): 0 | Plant response rating, Corn (corn (Zea mays); [24]): 0 | Plant response rating, Velvetleaf [5, 20]: 0 | Plant response rating, Lambsquarters [6, 20]: 100 | Plant response rating, Cocklebur [7, 20]: 10 | Plant response rating, Cocklebur [7, 24]: 30 | Plant response rating, Barnyardgrass [8, 20]: 80 | Plant response rating, Barnyardgrass [8, 24]: 100 | Plant response rating, Surinam grass [9, 20]: 0 | Plant response rating, Surinam grass [9, 24]: 40 | Plant response rating, Pigweed [10, 20]: 80 | Plant response rating, Foxtail, Giant [11, 20]: 0 | Plant response rating, Wild Oat (wild oat (Avena fatua); [20]): 0 | Plant response rating, Morningglory [12, 20]: 0 | Plant response rating, Sunflower (Sunflower [13]): 0 | Plant response rating, Crabgrass [14, 20]: 100 | Plant response rating, Crabgrass [14, 22]: 100 | Plant response rating (0 to 100), Crabgrass ([14]; preemergence): 100 | Plant response rating, Crabgrass [14, 23]: 100 | Plant response rating, Soybean (soybean (Glycine max); [20]): 0 | Plant response rating, Soybean (soybean (Glycine max); [22]): 0 | Plant response rating (0 to 100), Soybean (soybean (Glycine max); preemergence): 0 | Plant response rating, Soybean (soybean (Glycine max); [23]): 0 | Plant response rating, Sunflower (Sunflower [15]): 0 | Plant response rating, Bermudagrass [16, 20]: 100 | Plant response rating, Bermudagrass [16, 22]: 100 | Plant response rating (0 to 100 where 0 is no effect and 100 is complete control), Bermudagrass ([16]; preemergence): 100 | Plant response rating, Bermudagrass [16, 23]: 100 | Plant response rating, Velvetleaf [17, 20]: 20 | Plant response rating, Velvetleaf [17, 22]: 0 | Plant response rating (0 to 100), Velvetleaf ([17]; preemergence): 30 | Plant response rating, Velvetleaf [17, 23]: 20 | Plant response rating, Goosegrass [18, 20]: 100 | Plant response rating, Goosegrass [18, 22]: 100 | Plant response rating (0 to 100), Goosegrass ([18]; preemergence): 100 | Plant response rating, Goosegrass [18, 23]: 100 | Plant response rating, Cocklebur [19, 20]: 0 | Plant response rating, Cocklebur [19, 22]: 0 | Plant response rating (0 to 100), Cocklebur ([19]; preemergence): 0 | Plant response rating, Cocklebur [19, 23]: 0 | Plant response rating, Kochia (kochia (Kochia scoparia); [20]): 100 | Plant response rating, Kochia (kochia (Kochia scoparia); [22]): 100 | Plant response rating (0 to 100), Kochia (kochia (Kochia scoparia); preemergence): 100 | Plant response rating, Kochia (kochia (Kochia scoparia); [23]): 100
